Reference: patent US8927498B2, “Compositions and methods useful in enhancement of memory” (The Translational Genomics Research Institute, priority 2010, dated 2015)

System: hippocampal transcripts (mitochondrial pathway genes and genes associated with neurological function)
Assay: transcriptome examination using RNA-Seq, hippocampus
Assay type: in vivo, rat
From the text: Transcriptome Examination Using RNA-Seq Upon MARCKS Peptide Decoy Treatment
Following sacrifice, the left hippocampus was utilized for genome-wide expression profiling. […] These included Adcyap1 with fold change (FC) of 1.5, and p=0.029, Tiam1 with FC of −1.5 and p=0.028, and Filip1 with FC of −1.75 and p=0.032 (Table 1). The RT-PCR validation of the fold change of FILIP1 and Tiam1 is shown in Table 2 and Table 3, respectively.
Table 4 disclosed herein provides the major pathways in mitochondria altered in the MARCKS peptide decoy treated animals. Mitochondrial NADH dehydrogenase is a key enzyme in the oxidative phosphorylation pathway in the mitochondria. Mitochondrially encoded cytochrome c oxidase I (MT-CO1), also known as cytochrome c oxidase I (COX1), is a protein that is found in mitochondria. Cytochrome c oxidase is the component of the respiratory chain that catalyzes the reduction of oxygen to water. MT-CO1 is associated with aging. Mutations in the human MT-CO1 gene have been associated with several diseases, including neurodegenerative diseases, such as late-onset Alzheimer disease. Cytochrome b (mt-cyb) is a component of the ubiquinol-cytochrome c reductase complex (complex III or cytochrome b-c1 complex), which is a respiratory chain that generates an electrochemical potential coupled to ATP synthesis. ATP synthase F0 subunit 6 (or subunit/chain A) is a subunit of F0 complex of transmembrane F-type ATP synthase. This subunit is a key component of the proton channel, and may play a direct role in the translocation of protons across the membrane. ATP6 is a gene associated with neuropathy, ataxia, and retinitis pigmentosa. mt-ATP8 is another subunit involved in ATP biosynthetic process.
Table 5 provides the list of the genes that are directly or indirectly associated with neurological function and are with significant fold change in peptide decoy treated animals in comparison to the controls.

[1] = locus chrM: 9450-9798, vehicle 617.42

In the case of “SEQ ID NO: 1: fusion peptide including a TAT protein transduction domain and residues surrounding two known serine phosphorylation targets (Ser159 and Ser163) within MARCKS (YGRKKRRQRRRCKRFSFKKSFKLSGFSFKK; TAT MARCKS fusion)”, the “Ln (Fold Change) (M/V), Calm3” value (locus chr1: 77244168-77252808) is reported as 1.894, the “MARCKS FPKM, Calm3” value (locus chr1: 77244168-77252808, vehicle 856.54) is reported as 1621.94 FPKM and the “Ln (Fold Change) (M/V), Fth1” value (locus chr1: 212430422-212432741) is reported as 1.397. The “MARCKS FPKM, Fth1” value (locus chr1: 212430422-212432741, vehicle 354.58) was 495.44 FPKM, the “Ln (Fold Change) (M/V), P97600_RAT” value (locus chr1: 249369571-249369889) was 0.7544 and the “MARCKS FPKM, P97600_RAT” value (locus chr1: 249369571-249369889, vehicle 492.68) was 371.65 FPKM. For the same substance, the “Ln (Fold Change) (M/V), Selt” value (locus chr2: 147913244-147929296) was 0.5377, the “MARCKS FPKM, Selt” value (locus chr2: 147913244-147929296, vehicle 214.44) was 115.30 FPKM and the “Ln (Fold Change) (M/V), Snap25” value (locus chr3: 124860288-124894636) was 0.8176. The “MARCKS FPKM, Snap25” value (locus chr3: 124860288-124894636, vehicle 750.47) was 613.59 FPKM, the “Ln (Fold Change) (M/V), Ywhab” value (locus chr3: 154926026-155140469) was 0.5137 and the “MARCKS FPKM, Ywhab” value (locus chr3: 154926026-155140469, vehicle 131.57) was 67.59 FPKM. For the same substance, the “Ln (Fold Change) (M/V), Sdcbp” value (locus chr5: 19822457-19849209) was 0.666, the “MARCKS FPKM, Sdcbp” value (locus chr5: 19822457-19849209, vehicle 131.61) was 87.65 FPKM and the “Ln (Fold Change) (M/V), Rraga” value (locus chr5: 105659673-105661250) was 0.4798. The “MARCKS FPKM, Rraga” value (locus chr5: 105659673-105661250, vehicle 433.02) was 207.77 FPKM, the “Ln (Fold Change) (M/V), HPCA_RAT” value (locus chr5: 148268061-148276223) was 2.229 and the “MARCKS FPKM, HPCA_RAT” value (locus chr5: 148268061-148276223, vehicle 141.44) was 315.32 FPKM. The “Ln (Fold Change) (M/V), RTN1_RAT” value (locus chr6: 94397064-94426283) was 1.726, the “MARCKS FPKM, RTN1_RAT” value (locus chr6: 94397064-94426283, vehicle 842.08) was 1453.43 FPKM and the “Ln (Fold Change) (M/V), Tuba1b” value (locus chr7: 137706855-137709839) was 0.5387. The “MARCKS FPKM, Tuba1b” value (locus chr7: 137706855-137709839, vehicle 219.23) was 118.09 FPKM, the “Ln (Fold Change) (M/V), Ywhae” value (locus chr10: 63072127-63109833) was 0.6546 and the “MARCKS FPKM, Ywhae” value (locus chr10: 63072127-63109833, vehicle 892.66) was 584.35 FPKM. For the same substance, the “Ln (Fold Change) (M/V), Aldoc” value (locus chr10: 64308825-64312415) was 0.5322, the “MARCKS FPKM, Aldoc” value (locus chr10: 64308825-64312415, vehicle 140.11) was 74.57 FPKM and the “Ln (Fold Change) (M/V), Ndrg2” value (locus chr15: 27338551-27347196) was 0.4224. For the same substance, the “MARCKS FPKM, Ndrg2” value (locus chr15: 27338551-27347196, vehicle 142.86) was 60.35 FPKM, the “Ln (Fold Change) (M/V), Calm-ps2” value (locus chr15: 64161641-64162753) was 0.7792 and the “MARCKS FPKM, Calm-ps2” value (locus chr15: 64161641-64162753, vehicle 383.97) was 299.19 FPKM. The “Ln (Fold Change) (M/V), Gpm6a” value (locus chr16: 39670749-39783384) was 0.5709, the “MARCKS FPKM, Gpm6a” value (locus chr16: 39670749-39783384, vehicle 311.49) was 177.84 FPKM and the “Ln (Fold Change) (M/V), Slc25a4” value (locus chr16: 49353475-49357271) was 1.571. The “MARCKS FPKM, Slc25a4” value (locus chr16: 49353475-49357271, vehicle 243.91) was 383.20 FPKM, the “Ln (Fold Change) (M/V), Mt3” value (locus chr19: 11284554-11286402) was 1.316 and the “MARCKS FPKM, Mt3” value (locus chr19: 11284554-11286402, vehicle 301.07) was 396.12 FPKM. For the same substance, the “Ln (Fold Change) (M/V), Non-Annotated” value (locus chrM: 67-1025) was 0.8288, the “MARCKS FPKM, Non-Annotated” value (locus chrM: 67-1025, vehicle 69491.10) was 57596.80 FPKM and the “Ln (Fold Change) (M/V), Non-Annotated” value (locus chrM: 1093-2664) was 0.6921. The “MARCKS FPKM, Non-Annotated” value (locus chrM: 1093-2664, vehicle 53178.50) was 36802.40 FPKM, the “Ln (Fold Change) (M/V), Mitochondrial NADH dehydrogenase subunit 1 mt-nd1” value (locus chrM: 2739-3831) was 0.7838 and the “MARCKS FPKM, Non-Annotated” value (locus chrM: 2739-3831, vehicle 51.90) was 0.00 FPKM. For the same substance, the “MARCKS FPKM, Non-Annotated” value (locus chrM: 2739-3831, vehicle 126.72) was 0.00 FPKM, the “MARCKS FPKM, Mitochondrial NADH dehydrogenase subunit 1 mt-nd1” value (locus chrM: 2739-3831, vehicle 1879.89) was 1473.47 FPKM and the “Ln (Fold Change) (M/V), Non-Annotated” value (locus chrM: 2739-3831, vehicle FPKM 51.90) was 0. For the same substance, the “Ln (Fold Change) (M/V), Non-Annotated” value (locus chrM: 2739-3831, vehicle FPKM 126.72) was 0, the “Ln (Fold Change) (M/V), Mitochondrial NADH dehydrogenase subunit 2 mt-nd2” value (locus chrM: 3903-5008) was 0.5713 and the “MARCKS FPKM, Mitochondrial NADH dehydrogenase subunit 2 mt-nd2” value (locus chrM: 3903-5008, vehicle 1965.45) was 1122.94 FPKM. The “Ln (Fold Change) (M/V), Cytochrome c oxidase subunit I mt-co1” value (locus chrM: 5322-6933) was 0.7397, the “Ln (Fold Change) (M/V), Non-Annotated” value (locus chrM: 5322-6933) was 0 and the “MARCKS FPKM, Non-Annotated” value (locus chrM: 5322-6933, vehicle 321.91) was 0.00 FPKM. The “MARCKS FPKM, Cytochrome c oxidase subunit I mt-co1” value (locus chrM: 5322-6933, vehicle 9734.89) was 7200.89 FPKM, the “Ln (Fold Change) (M/V), Cytochrome c oxidase subunit 2 mt-co2” value (locus chrM: 7005-7689) was 0.6512 and the “MARCKS FPKM, Cytochrome c oxidase subunit 2 mt-co2” value (locus chrM: 7005-7689, vehicle 5773.44) was 3759.79 FPKM. For the same substance, the “Ln (Fold Change) (M/V), ATP synthase F0 subunit 6 mt-ATP6” value (locus chrM: 7757-9382) was 0.5529, the “Ln (Fold Change) (M/V), ATP synthase F0 subunit 8 mt-ATP8” value (locus chrM: 7757-9382) was 0.7137 and the “Ln (Fold Change) (M/V), Cytochrome c oxidase subunit 3 mt-co3” value (locus chrM: 7757-9382) was 0.5326. The “MARCKS FPKM, ATP synthase F0 subunit 6 mt-ATP6” value (locus chrM: 7757-9382, vehicle 3257.55) was 1801.13 FPKM, the “MARCKS FPKM, ATP synthase F0 subunit 8 mt-ATP8” value (locus chrM: 7757-9382, vehicle 3627.88) was 2589.08 FPKM and the “MARCKS FPKM, Cytochrome c oxidase subunit 3 mt-co3” value (locus chrM: 7757-9382, vehicle 5137.18) was 2736.25 FPKM. The “Ln (Fold Change) (M/V), Mitochondrial NADH dehydrogenase subunit 3 mt-nd3” value (locus chrM: 9450-9798) was 0.5255, the “Ln (Fold Change) (M/V), NU3M_RAT” value (locus chrM: 9450-9798) was 0.5255 and the “MARCKS FPKM, Mitochondrial NADH dehydrogenase subunit 3 mt-nd3” value [1] was 324.46 FPKM. The “MARCKS FPKM, NU3M_RAT” value [1] was 324.46 FPKM, the “Ln (Fold Change) (M/V), Mitochondrial NADH dehydrogenase subunit 4 mt-nd4” value (locus chrM: 9869-11537) was 0.6903 and the “Ln (Fold Change) (M/V), NADH dehydrogenase subunit 4L mt-ND4L” value (locus chrM: 9869-11537) was 0.7182. For the same substance, the “MARCKS FPKM, Mitochondrial NADH dehydrogenase subunit 4 mt-nd4” value (locus chrM: 9869-11537, vehicle 2440.82) was 1684.95 FPKM, the “MARCKS FPKM, NADH dehydrogenase subunit 4L mt-ND4L” value (locus chrM: 9869-11537, vehicle 5804.14) was 4168.41 FPKM and the “Ln (Fold Change) (M/V), Mitochondrial NADH dehydrogenase subunit 5 mt-nd5” value (locus chrM: 11735-14061) was 0.8563. For the same substance, the “Ln (Fold Change) (M/V), Mitochondrial NADH dehydrogenase subunit 6 mt-nd6” value (locus chrM: 11735-14061) was 0.4947, the “MARCKS FPKM, Mitochondrial NADH dehydrogenase subunit 6 mt-nd6” value (locus chrM: 11735-14061, vehicle 1073.10) was 530.91 FPKM and the “MARCKS FPKM, Mitochondrial NADH dehydrogenase subunit 5 mt-nd5” value (locus chrM: 11735-14061, vehicle 2920.80) was 2501.19 FPKM. For the same substance, the “Ln (Fold Change) (M/V), Cytochrome b (mt-cyb)” value (locus chrM: 14135-15278) was 0.7536, the “MARCKS FPKM, Cytochrome b (mt-cyb)” value (locus chrM: 14135-15278, vehicle 2792.49) was 2104.37 FPKM and the “Ln (Fold Change) (M/V), Gdi1” value (locus chrX: 160299116-160305777) was 0.6667. The “MARCKS FPKM, Gdi1” value (locus chrX: 160299116-160305777, vehicle 124.22) was 82.82 FPKM.
